The subject of data set [1] is genetically heterogeneous mice. Briefly: Lifespan of mice fed test agents in the diet (Cohort 2005; rapamycin from 600 days of age). Conditions: for Survival compared with controls: added to the diet at 4 months of age, enalapril 120 mg/kg food, CAPE 30 or 300 mg/kg food; for Effect size expressed as life expectancy at 600 days / Effect size expressed as mean lifespan: pooled data set.
Description: Mice were produced at each of the three test sites by mating CB6F1 females with C3D2F1 males to produce a genetically heterogeneous population. […] Each test site enrolled approximately equal numbers of 19-21 day-old weanlings each month over a six month period, housing 3 males or 4 females/cage. Each site used diets that the manufacturer claimed were based on the NIH-31 standard for breeding cages and the period between weaning and the initiation of experimental diets, as follows: For breeding cages, UM used Purina 5008, UT used Teklad 7912, and TJL used Purina 5K52. For weanlings prior to 4 months of age, UM used Purina 5008, UT used Teklad 7912, and TJL used Purina 5LG6. Starting when 4 months old, mice in the Control, Enalapril, and CAPE groups received Purina 5LG6 at all three sites, without additives (control group) or with the test agent. […] The principal endpoint was age at death (for mice found dead at daily inspections) or age at euthanasia (for mice deemed unlikely to survive for more than an additional 48 h).
The Cohort 2005 study population, distributed almost equally among the three test sites, consisted initially of 1960 mice, of which 674 were assigned to the control group and 317 to 328 to each of the four treatment groups. Of these, 51 mice were removed from the study because of fighting (31 mice), accidental death (such as chip implantation or cage flooding; 13 mice), or because of technical error (error in gender assignment or diet selection; 7 mice). For survival analyses, mice were treated as alive at the date of their removal from the protocol, and lost to follow-up thereafter. These censored mice were not included in calculations of median longevity.
Mice were examined at least daily for signs of ill health, and were euthanized for humane reasons if they were so severely moribund that they were considered, by an experienced technician, unlikely to survive for more than an additional 48 hrs. […] The age at which a moribund mouse was euthanized was taken as the best available estimate of its natural lifespan. Mice found dead were also noted at each daily inspection.
TestDiet, Inc. (Richmond, Ind.) prepared batches of Purina 5LG6 food containing each of the test substances, as well as control diet batches, at intervals of approximately 120 days, and shipped each batch of food at the same time to each of the three test sites. Enalapril was purchased from Sigma (catalogue E6888-5G) and used at 120 mg per kg food; on the assumption that the average mouse weighs 30 gm and consumes 5 gm of food/day, this dose supplies 20 mg enalapril per kg body weight/day. CAPE, i.e. caffeic acid phenethyl ester, was purchased from Cayman (Ann Arbor, Mich.; Catalogue 70750), and used at either of two doses: the high dose was 300 mg/kg food (50 mg/kg body weight/day), and the low dose was 30 mg/kg food (5 mg/kg body weight/day).

The subject of data set [2] is phosphorylation of ribosomal protein S6 (Ser240/244), a substrate of S6 kinase 1. Briefly: Immunoblot of rpS6 phosphorylation in tissue lysates. Type of data set: in vivo, mouse. Conditions: visceral white adipose tissue; fed from 270 to about 800 days of age. The method, then: Signal intensities for each immunoblot were captured using a Kodak Image Station, which were analysed using Kodak 1D image analysis software.
A general note: In western blotting, separated proteins are transferred to a membrane and probed.

Data set [3] concerns Aβ / APP in brains of 3×Tg-AD mice. The experiment in a line: APP Western blots, Aβ ELISA and immunohistochemistry in brain, 3xTg-AD mice. Type of data set: in vivo, mouse. The note with it: ELISA. The method, then:
(§1) Tissue was processed and analyzed as described previously 13, 25, 26 and is described in detail in Supplementary Information. Aβ and tau were measured using specific ELISAs.
3×Tg-AD mice were sacrificed by CO2 asphyxiation. The brains were extracted and cut in-half sagitally and tissue was processed as described (Oddo et al., 2008). The hAPP(J20) mice were euthanized by isoflurane overdose. Hemibrains were flash frozen. One hemibrain was homogeneized in liquid N2 while the other was used in immunohistochemical determinations. For Western blot analyses, proteins from both hAPP(J20) and 3×Tg-AD soluble fractions were resolved by SDS/PAGE (Invitrogen, Temecula, Calif.) under reducing conditions and transferred to a nitrocellulose or PVDF membrane. The membrane was incubated in a 5% solution of non-fat milk or in 5% BSA for 1 hour at 20° C. […] Aβ40 and Aβ42 levels were measured from the soluble and insoluble fractions using a sandwich ELISA protocol as described previously (Oddo et al., 2005). Aβ40 and Aβ42 in hAPP(J20) mice were quantitated in guanidine homogenates of Tg hAPP(J20) hemibrains as described (Galvan et al., 2006) using specific ELISA assays (Invitrogen, Carlsbad, Calif.). […]

Data set [4] relates to Aβ / APP in brains of hAPP(J20) mice. Briefly: APP Western blots and Aβ ELISA in brain, hAPP(J20) mice. The class given is in vivo, mouse. The method, then: as §1
3×Tg-AD mice were sacrificed by CO2 asphyxiation. The brains were extracted and cut in-half sagitally and tissue was processed as described (Oddo et al., 2008). The hAPP(J20) mice were euthanized by isoflurane overdose. Hemibrains were flash frozen. One hemibrain was homogeneized in liquid N2 while the other was used in immunohistochemical determinations. For Western blot analyses, proteins from both hAPP(J20) and 3×Tg-AD soluble fractions were resolved by SDS/PAGE (Invitrogen, Temecula, Calif.) under reducing conditions and transferred to a nitrocellulose or PVDF membrane. The membrane was incubated in a 5% solution of non-fat milk or in 5% BSA for 1 hour at 20° C. […] Aβ40 and Aβ42 levels were measured from the soluble and insoluble fractions using a sandwich ELISA protocol as described previously (Oddo et al., 2005). Aβ40 and Aβ42 in hAPP(J20) mice were quantitated in guanidine homogenates of Tg hAPP(J20) hemibrains as described (Galvan et al., 2006) using specific ELISA assays (Invitrogen, Carlsbad, Calif.).

The nature of data set [5]: Body weight of rapamycin-fed mice. Type of data set: in vivo, mouse.
The test system of the next data set is HET3 mice. The experiment in a line: Glucose tolerance on high fat diet. The class given is in vivo, mouse. Conditions: HET3 mice fed a high fat diet.
For data set [6] the following is noted: Pong and Zaleska, 2003; cited from earlier work.

Consider three molecules from US11110067B2 (THE BOARD OF REGENTS OF THE UNIVERSITY OF TEXAS SYSTEM, priority 2008, dated 2021).

Take `O=C(/C=C/c1ccc(O)c(O)c1)OCCc1ccccc1` [CAPE, caffeic acid phenethyl ester]: in data set [1], the “Survival compared with controls” value is “did not differ from controls”.
Turning to `CCOC(=O)[C@H](CCc1ccccc1)N[C@@H](C)C(=O)N1CCC[C@H]1C(=O)O` [enalapril], the “Survival compared with controls” value in data set [1] is “did not differ from controls”.
As to `CO[C@H]1C[C@@H]2CC[C@@H](C)[C@@](O)(O2)C(=O)C(=O)N2CCCC[C@H]2C(=O)O[C@H]([C@H](C)C[C@@H]2CC[C@@H](O)[C@H](OC)C2)CC(=O)[C@H](C)/C=C(\C)[C@@H](O)[C@@H](OC)C(=O)[C@H](C)C[C@H](C)/C=C/C=C/C=C/1C` [rapamycin, (3S,6R,7E,9R,10R,12R,14S,15E,17E,19E,21S,23S,26R,27R,34aS)-9,10,12,13,14,21,22,23,24,25,26,27,32,33,34,34a-hexadecahydro-9,27-dihydroxy-3-[(1R)-2-[(1S,3R,4R)-4-hydroxy-3-methoxycyclohexyl]-1-methylethyl]-10,21-dimethoxy-6,8,12,14,20,26-hexamethyl-23,27-epoxy-3H-pyrido[2,1-c][1,4]oxaazacyclohentria-contine-1,5,11,28,29 (4H,6H,31H)-pentone], the “Reduction of levels of phosphorylated rpS6” value in data set [2] is reported as 4-5 fold. The “Decrease of soluble Aβ42 levels” value in data set [3] amounted to 32.78±6.68%; in data set [4] it was 52.35±13.14%. For the same molecule, the Body weight result is reported as “No difference” in data set [5] (high fat diet, 12 weeks of feeding) and “No effect” in data set [5] (mouse, in vivo). Moreover, the Glucose tolerance result in the data set with HET3 mice is listed as “causes glucose intolerance”. Moreover, in data set [6], the “Blood brain barrier passage” value is reported as “readily crosses the blood brain barrier”. Besides, the “Increase of life expectancy at 600 days” value in data set [1] (females, TJL) was found to be 45%; in data set [1] (females, UM) it was 48%; in data set [1] (females, UT) it was 22%; in data set [1] (males, TJL) it was 16%; in data set [1] (males, UM), 23%; in data set [1] (males, UT), 52%. Moreover, the Mean lifespan increase was 15% in data set [1] (females, TJL); 16% in data set [1] (females, UM); 7% in data set [1] (females, UT); 5% in data set [1] (males, TJL); 8% in data set [1] (males, UM); 15% in data set [1] (males, UT). The “Percentage increase of age at 90th percentile versus controls” value was determined as 17% in data set [1] (females, TJL); 14% in data set [1] (females, UM); 8% in data set [1] (females, UT); 14% in data set [1] (females, all sites); 10% in data set [1] (males, TJL); 4% in data set [1] (males, UM). Also, the “Percentage increase of age at 90th percentile versus controls” value in data set [1] (males, UT) was determined as 16%; in data set [1] (males, all sites) it was 9%. For the same molecule, the “% Live at the 90th percentile age of the joint distribution” value is on record as 22.9% in data set [1] (females, TJL, age 1167 days); 27.1% in data set [1] (females, UM, age 1162 days); 14.6% in data set [1] (females, UT, age 1123 days); 21.5% in data set [1] (females, pooled sites); 21.5% in data set [1] (females, pooled sites, listed as Rapa); 19.3% in data set [1] (males, TJL, age 1088 days). The “% Live at the 90th percentile age of the joint distribution” value was determined as 17.6% in data set [1] (males, UM, age 1154 days); 23.3% in data set [1] (males, UT, age 1112 days); 20.2% in data set [1] (males, pooled sites); 20.2% in data set [1] (males, pooled sites, listed as Rapa). Moreover, the “Number alive at the 90th percentile age” value was determined as 11 in data set [1] (females, TJL, age 1167 days); 13 in data set [1] (females, UM, age 1162 days); 7 in data set [1] (females, UT, age 1123 days); 31 in data set [1] (females, pooled sites); 11 in data set [1] (males, TJL, age 1088 days); 9 in data set [1] (males, UM, age 1154 days). The “Number alive at the 90th percentile age” value in data set [1] (males, UT, age 1112 days) stood at 14; in data set [1] (males, pooled sites) it was 34. In addition, the “Number dead at the 90th percentile age” value in data set [1] (females, TJL, age 1167 days) amounted to 37; in data set [1] (females, UM, age 1162 days), 35; in data set [1] (females, UT, age 1123 days) it was 41; in data set [1] (females, pooled sites), 113; in data set [1] (males, TJL, age 1088 days), 46; in data set [1] (males, UM, age 1154 days) it was 42. Besides, the “Number dead at the 90th percentile age” value worked out at 48 in data set [1] (males, UT, age 1112 days) and 134 in data set [1] (males, pooled sites). Further, the “Effect size expressed as life expectancy at 600 days” value in data set [1] (females) is on record as 38%; in data set [1] (males) it was 28%. The figures for the “Effect size expressed as mean lifespan” value in data set [1] (females) and in data set [1] (males) were 13% and 9%, respectively.
